Results taken from patent publication US6737383B1, “Herbicidal oxadiazolidines” (priority 1999, dated 2004).

How the values were obtained:
giant foxtail = assay: Test B pre/postemergence giant foxtail; assay type: in vivo, Setaria faberii
How it was run: (§1)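 Response is a visual 0-to-10 score relative to untreated plants, where 0 means no effect and 10 means complete control, taken twelve to sixteen days after application. Treatments went onto soil at planting and onto foliage of 1- to 4-leaf plants, using a surfactant-containing non-phytotoxic solvent.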

wheat = assay: Test B pre/postemergence wheat; assay type: in vivo, Triticum aestivum
How it was run: as §1

crabgrass = assay: Test B pre/postemergence crabgrass; assay type: in vivo, Digitaria sanguinalis
How it was run: as §1

duck salad = assay: Test B flood test duck salad; assay type: in vivo, Heteranthera limosa; details: for Plant response rating, Ducksalad (0 to 10 scale, 0 is no effect, 10 is complete control): Rate 62 g/ha; for Plant response rating, Ducksalad (0 to 10 scale, 0 is no effect, 10 is complete control) / Ducksalad plant response rating (0 to 10 scale, 0 is no effect, 10 is complete control): visual evaluation after twelve to sixteen days; for Ducksalad plant response rating (0 to 10 scale, 0 is no effect, 10 is complete control): Rate 125 g/ha, under heading Pre-emergence
How it was run: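 Flood test on plants grown to the 2-leaf stage; treated plants kept in greenhouse twelve to sixteen days, then visually rated against controls on a 0 (no effect) to 10 (complete control) scale.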

[1] = Postemergence, Rate 250 g/ha, scale 0 to 10
[2] = Postemergence, Rate 500 g/ha, scale of 0 to 10 where 0 is no effect and 10 is complete control
[3] = Preemergence, Rate 62 g/ha, scale of 0 to 10 where 0 is no effect and 10 is complete control
[4] = Preemergence, Rate 125 g/ha, scale of 0 to 10 where 0 is no effect and 10 is complete control
[5] = Preemergence, Rate 250 g/ha, scale 0 to 10, 0 is no effect, 10 is complete control
[6] = Preemergence, Rate 500 g/ha, scale 0 to 10, 0 is no effect, 10 is complete control
[7] = Rate 62 g/ha, Postemergence, scale 0 to 10, 0 no effect, 10 complete control
[8] = Rate 125 g/ha, Postemergence, scale 0 to 10, 0 is no effect, 10 is complete control
[9] = flood test species, Pre-emergence
[10] = Rate 250 g/ha, Pre-emergence (flood test species), scale 0 to 10, 0 is no effect, 10 is complete control
[11] = Rate 500 g/ha, Pre-emergence, flood test species, scale 0 to 10 (0 no effect, 10 complete control)

COC(C)n1c(=O)on(C(=O)N(c2ccc(F)cc2)C(C)C)c1=O (stereo not shown) [Compound 439]
Giant foxtail plant response rating (giant foxtail; [1]): 0 | Giant foxtail plant response rating (giant foxtail; [2]): 0 | Plant response rating, Giant foxtail (giant foxtail; [3]): 0 | Plant response rating, Giant foxtail (giant foxtail; [4]): 0 | Giant foxtail plant response rating (giant foxtail; [5]): 0 | Giant foxtail plant response rating (giant foxtail; [6]): 0 | Giant foxtail plant response rating (giant foxtail; [7]): 0 | Giant foxtail plant response rating (giant foxtail; [8]): 0 | Wheat plant response rating (wheat; [1]): 0 | Wheat plant response rating (wheat; [2]): 0 | Plant response rating, Wheat (wheat; [3]): 0 | Plant response rating, Wheat (wheat; [4]): 0 | Wheat plant response rating (wheat; [5]): 0 | Wheat plant response rating (wheat; [6]): 0 | Wheat plant response rating (wheat; [7]): 0 | Wheat plant response rating (wheat; [8]): 0 | Crabgrass plant response rating (crabgrass; [1]): 0 | Crabgrass plant response rating (crabgrass; [2]): 0 | Plant response rating, Crabgrass (crabgrass; [3]): 0 | Plant response rating, Crabgrass (crabgrass; [4]): 0 | Crabgrass plant response rating (crabgrass; [5]): 0 | Crabgrass plant response rating (crabgrass; [6]): 0 | Crabgrass plant response rating (crabgrass; [7]): 0 | Crabgrass plant response rating (crabgrass; [8]): 0 | Plant response rating, Ducksalad (0 to 10 scale, 0 is no effect, 10 is complete control) (duck salad; [9]): 0 | Ducksalad plant response rating (0 to 10 scale, 0 is no effect, 10 is complete control) (duck salad; flood test species): 0 | Ducksalad plant response rating (duck salad; [10]): 0 | Ducksalad plant response rating (duck salad; [11]): 0

Cc1nc(C)c(C(C)n2c(=O)on(C(=O)N(c3ccc(F)cc3F)C(C)C)c2=O)s1 (stereo not shown) [Compound 443]
Giant foxtail plant response rating (giant foxtail; [1]): 0 | Giant foxtail plant response rating (giant foxtail; [2]): 0 | Plant response rating, Giant foxtail (giant foxtail; [3]): 3 | Plant response rating, Giant foxtail (giant foxtail; [4]): 4 | Giant foxtail plant response rating (giant foxtail; [5]): 10 | Giant foxtail plant response rating (giant foxtail; [6]): 10 | Giant foxtail plant response rating (giant foxtail; [7]): 0 | Giant foxtail plant response rating (giant foxtail; [8]): 0 | Wheat plant response rating (wheat; [1]): 0 | Wheat plant response rating (wheat; [2]): 0 | Plant response rating, Wheat (wheat; [3]): 0 | Plant response rating, Wheat (wheat; [4]): 0 | Wheat plant response rating (wheat; [5]): 0 | Wheat plant response rating (wheat; [6]): 0 | Wheat plant response rating (wheat; [7]): 0 | Wheat plant response rating (wheat; [8]): 0 | Crabgrass plant response rating (crabgrass; [1]): 0 | Crabgrass plant response rating (crabgrass; [2]): 0 | Plant response rating, Crabgrass (crabgrass; [3]): 5 | Plant response rating, Crabgrass (crabgrass; [4]): 6 | Crabgrass plant response rating (crabgrass; [5]): 9 | Crabgrass plant response rating (crabgrass; [6]): 9 | Crabgrass plant response rating (crabgrass; [7]): 0 | Crabgrass plant response rating (crabgrass; [8]): 0 | Plant response rating, Ducksalad (0 to 10 scale, 0 is no effect, 10 is complete control) (duck salad; [9]): 0 | Ducksalad plant response rating (0 to 10 scale, 0 is no effect, 10 is complete control) (duck salad; flood test species): 0 | Ducksalad plant response rating (duck salad; [10]): 0 | Ducksalad plant response rating (duck salad; [11]): 0

CC(C)N(C(=O)n1oc(=O)n(C(C)C#N)c1=O)c1ccc(Cl)cc1 (stereo not shown) [Compound 451]
Giant foxtail plant response rating (giant foxtail; [1]): 3 | Giant foxtail plant response rating (giant foxtail; [2]): 7 | Plant response rating, Giant foxtail (giant foxtail; [3]): 0 | Plant response rating, Giant foxtail (giant foxtail; [4]): 0 | Giant foxtail plant response rating (giant foxtail; [5]): 4 | Giant foxtail plant response rating (giant foxtail; [6]): 7 | Giant foxtail plant response rating (giant foxtail; [7]): 0 | Giant foxtail plant response rating (giant foxtail; [8]): 0 | Wheat plant response rating (wheat; [1]): 0 | Plant response rating, Wheat (wheat; [3]): 0 | Plant response rating, Wheat (wheat; [4]): 0 | Wheat plant response rating (wheat; [5]): 0 | Wheat plant response rating (wheat; [6]): 0 | Wheat plant response rating (wheat; [7]): 0 | Wheat plant response rating (wheat; [8]): 0 | Crabgrass plant response rating (crabgrass; [1]): 4 | Crabgrass plant response rating (crabgrass; [2]): 6 | Plant response rating, Crabgrass (crabgrass; [3]): 0 | Plant response rating, Crabgrass (crabgrass; [4]): 0 | Crabgrass plant response rating (crabgrass; [5]): 1 | Crabgrass plant response rating (crabgrass; [6]): 7 | Crabgrass plant response rating (crabgrass; [7]): 0 | Crabgrass plant response rating (crabgrass; [8]): 0 | Plant response rating, Ducksalad (0 to 10 scale, 0 is no effect, 10 is complete control) (duck salad; [9]): 0 | Ducksalad plant response rating (0 to 10 scale, 0 is no effect, 10 is complete control) (duck salad; flood test species): 0 | Ducksalad plant response rating (duck salad; [10]): 0 | Ducksalad plant response rating (duck salad; [11]): 0

CC(C)N(C(=O)n1oc(=O)n(C(C)CCl)c1=O)c1ccc(Cl)cc1 (stereo not shown) [Compound 456]
Giant foxtail plant response rating (giant foxtail; [1]): 3 | Giant foxtail plant response rating (giant foxtail; [2]): 8 | Plant response rating, Giant foxtail (giant foxtail; [3]): 5 | Plant response rating, Giant foxtail (giant foxtail; [4]): 10 | Giant foxtail plant response rating (giant foxtail; [5]): 10 | Giant foxtail plant response rating (giant foxtail; [6]): 10 | Giant foxtail plant response rating (giant foxtail; [7]): 2 | Giant foxtail plant response rating (giant foxtail; [8]): 2 | Wheat plant response rating (wheat; [1]): 0 | Plant response rating, Wheat (wheat; [3]): 0 | Plant response rating, Wheat (wheat; [4]): 0 | Wheat plant response rating (wheat; [5]): 0 | Wheat plant response rating (wheat; [6]): 0 | Wheat plant response rating (wheat; [7]): 0 | Wheat plant response rating (wheat; [8]): 0 | Crabgrass plant response rating (crabgrass; [1]): 4 | Crabgrass plant response rating (crabgrass; [2]): 7 | Plant response rating, Crabgrass (crabgrass; [3]): 6 | Plant response rating, Crabgrass (crabgrass; [4]): 6 | Crabgrass plant response rating (crabgrass; [5]): 8 | Crabgrass plant response rating (crabgrass; [6]): 9 | Crabgrass plant response rating (crabgrass; [7]): 4 | Plant response rating, Ducksalad (0 to 10 scale, 0 is no effect, 10 is complete control) (duck salad; [9]): 0 | Ducksalad plant response rating (0 to 10 scale, 0 is no effect, 10 is complete control) (duck salad; flood test species): 0 | Ducksalad plant response rating (duck salad; [10]): 0 | Ducksalad plant response rating (duck salad; [11]): 0

CC(C)N(C(=O)n1oc(=O)n(CC#N)c1=O)c1ccc(Cl)cc1 [Compound 476]
Giant foxtail plant response rating (giant foxtail; [1]): 0 | Giant foxtail plant response rating (giant foxtail; [2]): 0 | Plant response rating, Giant foxtail (giant foxtail; [3]): 0 | Plant response rating, Giant foxtail (giant foxtail; [4]): 0 | Giant foxtail plant response rating (giant foxtail; [5]): 0 | Giant foxtail plant response rating (giant foxtail; [6]): 0 | Giant foxtail plant response rating (giant foxtail; [7]): 0 | Giant foxtail plant response rating (giant foxtail; [8]): 0 | Wheat plant response rating (wheat; [1]): 0 | Plant response rating, Wheat (wheat; [3]): 0 | Plant response rating, Wheat (wheat; [4]): 0 | Wheat plant response rating (wheat; [5]): 0 | Wheat plant response rating (wheat; [6]): 0 | Wheat plant response rating (wheat; [7]): 0 | Wheat plant response rating (wheat; [8]): 0 | Crabgrass plant response rating (crabgrass; [1]): 0 | Crabgrass plant response rating (crabgrass; [2]): 0 | Plant response rating, Crabgrass (crabgrass; [3]): 0 | Plant response rating, Crabgrass (crabgrass; [4]): 0 | Crabgrass plant response rating (crabgrass; [5]): 0 | Crabgrass plant response rating (crabgrass; [6]): 0 | Crabgrass plant response rating (crabgrass; [7]): 0 | Crabgrass plant response rating (crabgrass; [8]): 0 | Plant response rating, Ducksalad (0 to 10 scale, 0 is no effect, 10 is complete control) (duck salad; [9]): 0 | Ducksalad plant response rating (0 to 10 scale, 0 is no effect, 10 is complete control) (duck salad; flood test species): 0 | Ducksalad plant response rating (duck salad; [10]): 0 | Ducksalad plant response rating (duck salad; [11]): 0
